Measurements taken from ChEMBL document CHEMBL1201862, “PubChem BioAssay data set” (2004).
Calls of active or inactive are those of the source.

Legend:
[1] = tested on: P388; assay: cells; format: functional; conditions: Mus musculus
[2] = tested on: P388/ADR; assay: cells; format: functional; conditions: Mus musculus
[3] = tested on: SN12K1; assay: cells; format: functional; conditions: Homo sapiens
[4] = target: Paired box protein Pax-8 (Homo sapiens, UniProt Q06710); assay: inhibitors of PAX8-driven TPO luciferase reporter, dose response, RMG-I cells, cherry-pick (AID 687027); format: functional, cell-based;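 note: luciferase reporter driven by Pax8 target thyroperoxidase promoter measured by SteadyGlo luminescence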
[5] = target: T1, Sentrin-specific protease 8 (Homo sapiens, UniProt Q96LD8); format: functional;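 note: luminescence read-out of SENP8 inhibition, dose-response confirmation following an ultra-high-throughput screen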
T1 sequence (Q96LD8 whole entry): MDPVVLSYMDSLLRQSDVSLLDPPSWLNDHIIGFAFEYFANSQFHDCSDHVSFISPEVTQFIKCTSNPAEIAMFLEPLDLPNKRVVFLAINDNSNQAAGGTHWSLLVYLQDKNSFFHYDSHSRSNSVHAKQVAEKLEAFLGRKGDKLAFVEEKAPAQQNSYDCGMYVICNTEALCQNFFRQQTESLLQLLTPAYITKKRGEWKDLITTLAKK

[6] = target: T2, Sentrin-specific protease 6 (Homo sapiens, UniProt Q9GZR1); format: functional;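 note: Luminescence-based dose-response confirmatory assay of SENP6 inhibition, following up an ultra-high-throughput screen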
T2 sequence (Q9GZR1 whole entry): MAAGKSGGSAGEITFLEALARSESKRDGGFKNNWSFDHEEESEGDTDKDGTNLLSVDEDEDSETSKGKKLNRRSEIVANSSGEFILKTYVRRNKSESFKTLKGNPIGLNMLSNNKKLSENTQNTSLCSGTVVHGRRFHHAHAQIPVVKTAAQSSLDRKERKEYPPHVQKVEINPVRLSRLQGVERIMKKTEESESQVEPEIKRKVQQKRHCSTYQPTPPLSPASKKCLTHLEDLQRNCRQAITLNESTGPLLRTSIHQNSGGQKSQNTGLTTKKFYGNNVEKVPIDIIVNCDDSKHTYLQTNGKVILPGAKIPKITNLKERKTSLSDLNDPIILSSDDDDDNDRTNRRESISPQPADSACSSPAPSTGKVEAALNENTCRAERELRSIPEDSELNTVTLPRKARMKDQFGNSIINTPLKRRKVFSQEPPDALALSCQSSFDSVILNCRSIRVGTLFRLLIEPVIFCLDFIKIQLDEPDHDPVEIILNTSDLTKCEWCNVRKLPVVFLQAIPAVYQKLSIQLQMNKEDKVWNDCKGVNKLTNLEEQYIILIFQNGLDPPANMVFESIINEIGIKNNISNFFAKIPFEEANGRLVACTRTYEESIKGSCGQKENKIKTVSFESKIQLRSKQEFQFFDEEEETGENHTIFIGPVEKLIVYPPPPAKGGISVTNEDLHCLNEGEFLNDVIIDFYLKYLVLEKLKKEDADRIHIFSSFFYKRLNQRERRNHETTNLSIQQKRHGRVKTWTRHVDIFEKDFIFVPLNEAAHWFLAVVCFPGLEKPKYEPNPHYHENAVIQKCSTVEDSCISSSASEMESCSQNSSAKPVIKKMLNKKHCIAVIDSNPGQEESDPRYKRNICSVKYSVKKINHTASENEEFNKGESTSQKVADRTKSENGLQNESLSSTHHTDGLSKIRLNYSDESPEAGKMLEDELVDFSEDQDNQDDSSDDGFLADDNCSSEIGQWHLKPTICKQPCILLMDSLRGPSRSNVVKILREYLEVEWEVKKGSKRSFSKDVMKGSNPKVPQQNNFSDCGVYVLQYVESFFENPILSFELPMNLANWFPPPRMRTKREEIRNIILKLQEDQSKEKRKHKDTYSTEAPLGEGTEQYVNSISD

[7] = target: T3, Sentrin-specific protease 7 (Homo sapiens, UniProt Q9BQF6); format: functional;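 note: Luminescence-based dose-response confirmation of ultra-high-throughput screening hits, measuring inhibition of SENP7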
T3 sequence (Q9BQF6 whole entry): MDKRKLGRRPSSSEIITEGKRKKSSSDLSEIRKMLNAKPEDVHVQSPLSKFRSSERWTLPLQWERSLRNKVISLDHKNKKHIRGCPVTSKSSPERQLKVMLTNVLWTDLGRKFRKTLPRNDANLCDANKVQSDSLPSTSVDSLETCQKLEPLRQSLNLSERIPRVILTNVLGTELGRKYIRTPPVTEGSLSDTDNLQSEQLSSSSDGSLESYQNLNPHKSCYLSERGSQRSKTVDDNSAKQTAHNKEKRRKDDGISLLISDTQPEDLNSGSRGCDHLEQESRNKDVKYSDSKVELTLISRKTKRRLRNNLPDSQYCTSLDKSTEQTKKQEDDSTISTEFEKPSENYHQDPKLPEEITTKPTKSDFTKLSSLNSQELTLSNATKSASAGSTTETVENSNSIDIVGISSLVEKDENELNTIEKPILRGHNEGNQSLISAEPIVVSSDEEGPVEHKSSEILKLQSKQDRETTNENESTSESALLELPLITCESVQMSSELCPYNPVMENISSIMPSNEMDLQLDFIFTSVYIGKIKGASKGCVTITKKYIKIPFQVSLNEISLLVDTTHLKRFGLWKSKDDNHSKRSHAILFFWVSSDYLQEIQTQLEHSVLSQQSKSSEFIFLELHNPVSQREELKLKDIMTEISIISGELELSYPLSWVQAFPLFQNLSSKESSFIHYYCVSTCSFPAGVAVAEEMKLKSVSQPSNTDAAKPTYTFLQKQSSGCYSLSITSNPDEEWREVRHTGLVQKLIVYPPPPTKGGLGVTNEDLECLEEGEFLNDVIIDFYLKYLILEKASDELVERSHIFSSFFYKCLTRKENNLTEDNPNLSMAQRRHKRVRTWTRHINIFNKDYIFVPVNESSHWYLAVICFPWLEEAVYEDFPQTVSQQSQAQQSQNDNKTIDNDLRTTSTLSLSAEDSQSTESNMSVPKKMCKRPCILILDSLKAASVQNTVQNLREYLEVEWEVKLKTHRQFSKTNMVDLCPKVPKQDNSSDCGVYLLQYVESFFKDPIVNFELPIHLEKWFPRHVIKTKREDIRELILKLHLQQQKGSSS

[8] = target: T4, Caspase-3 (Homo sapiens, UniProt P42574); format: functional;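 note: Dose-response selectivity test against caspase-3 for candidate inhibitors of sentrin-specific proteases (SENPs)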
T4 sequence (P42574 whole entry): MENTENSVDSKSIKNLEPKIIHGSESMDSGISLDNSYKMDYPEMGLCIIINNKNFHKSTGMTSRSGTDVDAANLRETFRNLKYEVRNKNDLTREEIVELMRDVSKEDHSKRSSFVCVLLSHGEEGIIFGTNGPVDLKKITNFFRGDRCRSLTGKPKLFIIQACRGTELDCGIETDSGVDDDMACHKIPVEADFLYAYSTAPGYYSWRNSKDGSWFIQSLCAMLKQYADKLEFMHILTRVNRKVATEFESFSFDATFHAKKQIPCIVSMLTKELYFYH

[9] = Luminescence-based cell-based high throughput dose response assay to identify activators of the DAF-12 from the parasite S. stercoralis (ssDAF-12).; format: functional
[10] = target: T5, Oxysterols receptor LXR-beta (Homo sapiens, UniProt P55055); assay: LXR agonists, Gal4 luciferase reporter, dose response, counter-screen for ssDAF-12 agonist project, cell-based, luminescence, HEK293, S. stercoralis campaign (AID 720737); format: functional; conditions: read-out: IC50 (the source's name)
T5 sequence (P55055 whole entry): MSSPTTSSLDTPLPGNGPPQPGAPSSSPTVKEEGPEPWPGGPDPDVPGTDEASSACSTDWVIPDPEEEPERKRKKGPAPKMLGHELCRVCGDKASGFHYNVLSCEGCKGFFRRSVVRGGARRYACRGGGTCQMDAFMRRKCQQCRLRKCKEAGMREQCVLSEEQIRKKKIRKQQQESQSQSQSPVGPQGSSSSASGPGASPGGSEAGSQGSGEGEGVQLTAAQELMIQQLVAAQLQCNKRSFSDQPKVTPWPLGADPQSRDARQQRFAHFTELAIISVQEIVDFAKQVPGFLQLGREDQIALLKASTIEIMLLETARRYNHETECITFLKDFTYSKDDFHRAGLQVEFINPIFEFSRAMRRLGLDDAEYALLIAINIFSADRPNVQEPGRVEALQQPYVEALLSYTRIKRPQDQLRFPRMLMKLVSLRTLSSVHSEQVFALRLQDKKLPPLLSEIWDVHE

[11] = P. falciparum Dd2 growth inhibitors, dose response, SYBR Green, cherry-picked samples (AID 1159567); format: functional, cell-based
[12] = miR-122 activators in hepatoma reporter cells, dose response, cell-based, Huh7 psiCHECK-miR122, Renilla luciferase, cherry-picked (AID 651956); format: functional;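 note: huh7 hepatoma cells stably carrying a psiCHECK-2 miR-122 sensor plasmid; renilla luciferase signal reporting endogenous miR-122 activity after 48 h compound exposure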
[13] = HEK293T cytotoxicity, dose response, cytotoxicity control for miR-122 modulator project, cell-based, inhibitor set, cherry-pick, set 2 (AID 720697); format: functional

Chain of Paired box protein Pax-8 (Q06710 whole entry): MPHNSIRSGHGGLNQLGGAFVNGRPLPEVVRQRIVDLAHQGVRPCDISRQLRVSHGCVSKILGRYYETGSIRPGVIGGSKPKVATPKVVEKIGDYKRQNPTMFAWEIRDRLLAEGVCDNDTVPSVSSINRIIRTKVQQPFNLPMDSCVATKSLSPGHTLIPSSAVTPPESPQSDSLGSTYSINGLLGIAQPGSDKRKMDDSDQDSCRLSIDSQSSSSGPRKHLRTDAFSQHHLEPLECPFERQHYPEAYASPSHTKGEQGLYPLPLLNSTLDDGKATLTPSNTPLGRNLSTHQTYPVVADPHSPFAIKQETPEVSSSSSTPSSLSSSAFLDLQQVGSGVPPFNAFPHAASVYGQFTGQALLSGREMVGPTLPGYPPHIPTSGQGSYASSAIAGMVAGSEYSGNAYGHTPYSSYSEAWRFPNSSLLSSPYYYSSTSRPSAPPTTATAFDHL

For COc1ccc(CC2C(=O)NC(C)C(=O)N(C)C3C(=O)N(C)C(Cc4ccc(O)c(c4)Oc4ccc(cc4)C3O)C(=O)NC(C)C(=O)NC(C)C(=O)N2C)cc1 (configuration not stated), the GI50 [1] was 0.00373 µM (active), the GI50 [2] was 2.26 µM (inactive) and the GI50 [3] was 0.00262 µM (active). For the same compound, the AC50 [4] was < 0.26 µM (active).

For O=C(Nc1ccc2c(c1)CCC2)c1ccc(Br)s1, the IC50 [5] was 4.31 µM (active), the IC50 [6] was 5.03 µM (active) and the IC50 [7] was 3.4 µM (active). For the same compound, the IC50 [8] was 17.5 µM (active).

For O=C(CCNC(=O)c1ccccc1)N=Nc1c(O)[nH]c2ccccc12, the IC50 [9] was > 67.5 µM (inactive) and the EC50 [10] was > 67.5 µM (inactive).

With C[C@@H]1CN([C@@H](C)CO)C(=O)c2c(c3ccccc3n2C)-c2ccccc2CO[C@@H]1CN(C)C(=O)[C@H](C)c1ccccc1 the AC50 [11] was 3.29 µM (active).

In the case of C[C@@H]1CN([C@@H](C)CO)C(=O)c2cc(NS(=O)(=O)c3ccc(F)cc3)ccc2O[C@@H]1CN(C)Cc1ccc(-c2ccccc2)cc1, the AC50 [12] is reported as 17.7 µM (active) and the AC50 [13] is reported as < 0.195 µM (active).

With Cc1cn([C@H]2C[C@H](N=[N+]=[N-])[C@@H](CO)O2)c(=O)[nH]c1=O [ZIDOVUDINE] the GI50 [1] was 99.3 µM (inactive), the GI50 [2] was > 100 µM (inactive) and the GI50 [3] was > 100 µM (inactive).

For COC(=O)c1ccccc1NC(=O)c1ccnn1C, the IC50 [9] was > 67.5 µM (inactive) and the EC50 [10] was > 67.5 µM (inactive).

In the case of Cc1ccc(/C=N/OC(=O)c2nn(C)cc2Cl)cc1, the IC50 [5] is reported as 54.7 µM (active), the IC50 [6] is reported as 39 µM (active) and the IC50 [7] is reported as 13 µM (active). For the same compound, the IC50 [8] was 24 µM (active).
